Our source for the IC50 values is patent publication US12116343B2, “Inhibitors of APOL1 and methods of using same” (Vertex Pharmaceuticals Incorporated, priority 2020, dated 2024).

This test deals with T1, APOL1 G1 Protein (Homo sapiens, UniProt O14791, I384M/S342G).
T1 sequence (O14791 28-398 S342G/I384M): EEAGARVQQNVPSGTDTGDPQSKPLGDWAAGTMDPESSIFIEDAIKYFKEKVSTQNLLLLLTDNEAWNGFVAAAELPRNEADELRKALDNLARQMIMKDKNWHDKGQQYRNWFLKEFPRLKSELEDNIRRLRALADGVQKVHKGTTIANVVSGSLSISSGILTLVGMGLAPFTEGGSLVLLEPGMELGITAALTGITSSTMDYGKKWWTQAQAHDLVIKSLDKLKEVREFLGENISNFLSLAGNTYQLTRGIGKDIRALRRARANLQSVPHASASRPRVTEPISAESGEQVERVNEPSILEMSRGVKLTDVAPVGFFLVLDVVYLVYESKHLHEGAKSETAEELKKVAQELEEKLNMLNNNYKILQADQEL
The test is described as follows: Trypanosoma brucei brucei lysis assay using APOL1 recombinant protein (AlamarBlue viability). The format is cell-based. The conditions noted are these: Trypanosoma brucei brucei lysis, recombinant APOL1, AlamarBlue; read-out: Trypanosoma Assay (IC50). In a few lines: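 Bloodstream-form T. b. brucei Lister 427 VSG 221, 120,000 parasites/well in phenol red-free, FBS-free medium, lysed by recombinant APOL1 G1 with compound (10-point dose response, 0.1% DMSO final). Viability read by AlamarBlue fluorescence against a parasite standard curve.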

As to `O=C1NCCCC1NC(=O)[C@H]1C[C@H](c2c(-c3ccc(F)cc3)[nH]c3c(F)cc(F)cc32)C1` (stereo partly drawn) [Compound 23], the IC50 is 250 to 1000 nM.

`O=C(N[C@@H]1CCOC1)[C@H]1C[C@H](c2c(-c3ccc(F)cc3)[nH]c3c(F)cc(F)cc32)C1` [Compound 19]: the IC50 lay within 250 to 1000 nM.

On to `O=C(N[C@@H]1CCC[C@@H]1O)[C@H]1C[C@H](c2c(-c3ccc(F)cc3)[nH]c3c(F)cc(F)cc32)C1` [Compound 179], for which the IC50 is 250 to 1000 nM.

Consider `O=C([C@H]1C[C@H](c2c(-c3ccc(F)cc3)[nH]c3c(F)cc(F)cc32)C1)N1CCC[C@H]1CO` [Compound 210], for which the concentration for half-maximal inhibition (IC50) was 250 to 1000 nM.

Consider `CC1CC(NC(=O)[C@H]2C[C@H](c3c(-c4ccc(F)cc4)[nH]c4c(F)cc(F)cc43)C2)C(=O)O1` (stereo partly drawn) [Compound 207], for which the IC50 was more than 1000 nM.

In the case of `O=C(NC1(CO)CC(F)(F)C1)[C@H]1C[C@H](c2c(-c3ccc(F)cc3)[nH]c3c(F)cc(F)cc32)C1` [Compound 202], the IC50 was less than 250 nM.

With `O=C(NCc1nnco1)[C@H]1C[C@H](c2c(-c3ccc(F)cc3)[nH]c3c(F)cc(F)cc32)C1` [Compound 171], the concentration for half-maximal inhibition (IC50) is less than 250 nM.

Take `O=C(NC[C@H]1CC[C@@H](CO)O1)[C@H]1C[C@H](c2c(-c3ccc(F)cc3)[nH]c3c(F)cc(F)cc32)C1` [Compound 189]: the concentration for half-maximal inhibition (IC50) is more than 1000 nM.

Regarding `O=C(NC1CCOC1)[C@H]1C[C@H](c2c(-c3ccc(F)cc3)[nH]c3c(F)cc(F)cc32)C1` (stereo partly drawn) [Compound 15], the IC50 is 250 to 1000 nM.

As to `O=C(N[C@H]1CC[C@H]1O)[C@H]1C[C@H](c2c(-c3ccc(F)cc3)[nH]c3c(F)cc(F)cc32)C1` [Compound 181], the IC50 fell in the range of 250 to 1000 nM.

Regarding `CC1(NC(=O)[C@H]2C[C@H](c3c(-c4ccc(F)cc4)[nH]c4c(F)cc(F)cc43)C2)CCNC1=O` (mixture of isomers) [Compound 197], the concentration for half-maximal inhibition (IC50) was less than 250 nM.

For the compound `NC(=O)[C@@H](CO)NC(=O)[C@H]1C[C@H](c2c(-c3ccc(F)cc3)[nH]c3c(F)cc(F)cc32)C1` [Compound 221], the half-maximal inhibitory concentration (IC50) was less than 250 nM.

Take `COCCNC(=O)[C@H]1C[C@H](c2c(-c3ccc(F)cc3)[nH]c3c(F)cc(F)cc32)C1` [Compound 12]: the IC50 fell in the range of 250 to 1000 nM.

Take `O=C(NCCn1cccc1)[C@H]1C[C@H](c2c(-c3ccc(F)cc3)[nH]c3c(F)cc(F)cc32)C1` [Compound 34]: the half-maximal inhibitory concentration (IC50) is 250 to 1000 nM.

Take `CS(=O)(=O)CCNC(=O)[C@H]1C[C@H](c2c(-c3ccc(F)cc3)[nH]c3c(F)cc(F)cc32)C1` [Compound 40]: the half-inhibitory concentration (IC50) was more than 1000 nM.

For the compound `O=C([C@H]1C[C@H](c2c(-c3ccc(F)cc3)[nH]c3c(F)cc(F)cc32)C1)N1C[C@@H](O)[C@H](O)C1` [Compound 227], the IC50 lay within 250 to 1000 nM.

As for `O=C1OCC[C@@H]1NC(=O)[C@H]1C[C@H](c2c(-c3ccc(F)cc3)[nH]c3c(F)cc(F)cc32)C1` [Compound 188], the IC50 was 250 to 1000 nM.

Regarding `O=C(N[C@H]1CNC[C@@H]1O)[C@H]1C[C@H](c2c(-c3ccc(F)cc3)[nH]c3c(F)cc(F)cc32)C1` [Compound 212], the concentration for half-maximal inhibition (IC50) was in the range of 250 to 1000 nM.

Regarding `CS(=O)(=O)NC(=O)[C@H]1C[C@H](c2c(-c3ccc(F)cc3)[nH]c3c(F)cc(F)cc32)C1` [Compound 213], the IC50 was more than 1000 nM.

For `O=C(NCCn1cncn1)[C@H]1C[C@H](c2c(-c3ccc(F)cc3)[nH]c3c(F)cc(F)cc32)C1` [Compound 36], the IC50 is less than 250 nM.

In the case of `C[C@H](O)[C@@H](CO)NC(=O)[C@H]1C[C@H](c2c(-c3ccc(F)cc3)[nH]c3c(F)cc(F)cc32)C1` [Compound 16], the half-maximal inhibitory concentration (IC50) was less than 250 nM.

With `CN(C(=O)[C@H]1C[C@H](c2c(-c3ccc(F)cc3)[nH]c3c(F)cc(F)cc32)C1)C1COCC1O` (stereo partly drawn) [Compound 205], the IC50 was more than 1000 nM.

On to `Cc1cc(CNC(=O)[C@H]2C[C@H](c3c(-c4ccc(F)cc4)[nH]c4c(F)cc(F)cc43)C2)on1` [Compound 37], for which the IC50 was 250 to 1000 nM.

Consider `Cn1ccc(NC(=O)[C@H]2C[C@H](c3c(-c4ccc(F)cc4)[nH]c4c(F)cc(F)cc43)C2)n1` [Compound 22], for which the half-inhibitory concentration (IC50) lay within 250 to 1000 nM.

Take `Cn1ncc(CNC(=O)[C@H]2C[C@H](c3c(-c4ccc(F)cc4)[nH]c4c(F)cc(F)cc43)C2)n1` [Compound 198]: the IC50 is less than 250 nM.

Regarding `CC(CO)NC(=O)[C@H]1C[C@H](c2c(-c3ccc(F)cc3)[nH]c3c(F)cc(F)cc32)C1` (mixture of isomers) [Compound 13], the 50% inhibitory concentration (IC50) was less than 250 nM.

With `O=C(N[C@@H]1CCC[C@H]1O)[C@H]1C[C@H](c2c(-c3ccc(F)cc3)[nH]c3c(F)cc(F)cc32)C1` [Compound 182], the IC50 was more than 1000 nM.

As to `Cn1cc(CNC(=O)[C@H]2C[C@H](c3c(-c4ccc(F)cc4)[nH]c4c(F)cc(F)cc43)C2)cn1` [Compound 38], the 50% inhibitory concentration (IC50) fell in the range of 250 to 1000 nM.

`Cn1cncc1CNC(=O)[C@H]1C[C@H](c2c(-c3ccc(F)cc3)[nH]c3c(F)cc(F)cc32)C1` [Compound 174]: the IC50 lay within 250 to 1000 nM.

On to `O=C1N[C@H](CO)C[C@@H]1NC(=O)[C@H]1C[C@H](c2c(-c3ccc(F)cc3)[nH]c3c(F)cc(F)cc32)C1` [Compound 209], for which the IC50 is more than 1000 nM.

With `O=C1CN(C(=O)[C@H]2C[C@H](c3c(-c4ccc(F)cc4)[nH]c4c(F)cc(F)cc43)C2)CCN1` [Compound 228], the IC50 was more than 1000 nM.

As for `O=C(NC(CO)C1CC1)[C@H]1C[C@H](c2c(-c3ccc(F)cc3)[nH]c3c(F)cc(F)cc32)C1` (stereo partly drawn) [Compound 199], the IC50 was 250 to 1000 nM.

Take `CC1(CO)CCN1C(=O)[C@H]1C[C@H](c2c(-c3ccc(F)cc3)[nH]c3c(F)cc(F)cc32)C1` (mixture of isomers) [Compound 218]: the IC50 was less than 250 nM.

With `COC[C@@H]1CCN1C(=O)[C@H]1C[C@H](c2c(-c3ccc(F)cc3)[nH]c3c(F)cc(F)cc32)C1` [Compound 222], the IC50 was less than 250 nM.

With `NC(=O)C(CO)NC(=O)[C@H]1C[C@H](c2c(-c3ccc(F)cc3)[nH]c3c(F)cc(F)cc32)C1` (stereo partly drawn) [Compound 32], the half-maximal inhibitory concentration (IC50) was less than 250 nM.

In the case of `O=C([C@H]1C[C@H](c2c(-c3ccc(F)cc3)[nH]c3c(F)cc(F)cc32)C1)N1CC(CO)C1` [Compound 223], the IC50 is less than 250 nM.

For `O=C(NC[C@@H](O)CO)[C@H]1C[C@H](c2c(-c3ccc(F)cc3)[nH]c3c(F)cc(F)cc32)C1` [Compound 224], the IC50 was more than 1000 nM.

Turning to `O=C(NC[C@H](O)C(F)(F)F)[C@H]1C[C@H](c2c(-c3ccc(F)cc3)[nH]c3c(F)cc(F)cc32)C1` [Compound 176], the IC50 was less than 250 nM.

With `C[C@@H](CO)NC(=O)[C@H]1C[C@H](c2c(-c3ccc(F)cc3)[nH]c3c(F)cc(F)cc32)C1` [Compound 200], the half-inhibitory concentration (IC50) was less than 250 nM.
